ChEMBL document CHEMBL4842358, “Design, synthesis and biological evaluation of sphingosine-1-phosphate receptor 2 antagonists as potent 5-FU-resistance reversal agents for the treatment of colorectal cancer” (Eur J Med Chem, 2021)
Calls of active or inactive are those of the source. The rule behind the calls is not given here.

What was measured:
[1] = Drug concentration in Sprague-Dawley rat blood at 1 mg/kg, iv measured after 8 hrs by LC-MS/MS analysis; format: ADME, organism-based; conditions: read-out: Ct
[2] = Volume of distribution in Sprague-Dawley rat plasma at 1 mg/kg, iv measured for 24 hrs by LC-MS/MS analysis; format: ADME, organism-based
[3] = molecular target: T1, Sphingosine 1-phosphate receptor 2 (Homo sapiens, UniProt O95136); experiment: Binding affinity to S1PR2 (unknown origin) assessed as dissociation constant measured for 60 secs by surface plasmon resonance assay
T1 sequence (O95136 whole entry): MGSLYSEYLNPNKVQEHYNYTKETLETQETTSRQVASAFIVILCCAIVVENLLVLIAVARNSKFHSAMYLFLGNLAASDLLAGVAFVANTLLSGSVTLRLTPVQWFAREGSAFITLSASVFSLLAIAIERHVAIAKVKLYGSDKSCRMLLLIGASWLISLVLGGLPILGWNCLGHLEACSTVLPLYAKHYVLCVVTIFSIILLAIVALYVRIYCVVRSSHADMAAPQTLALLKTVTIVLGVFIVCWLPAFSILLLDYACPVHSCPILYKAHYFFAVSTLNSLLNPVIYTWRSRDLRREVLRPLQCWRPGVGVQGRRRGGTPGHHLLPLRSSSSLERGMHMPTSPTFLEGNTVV

[4] = molecular target: T1, Sphingosine 1-phosphate receptor 2; experiment: Binding affinity to S1PR2 (unknown origin) assessed as association constant measured for 60 secs by surface plasmon resonance assay; conditions: filed as antagonist, time 60.0 sec
[5] = Mean residence time (0 to infinity) in Sprague-Dawley rat plasma at 1 mg/kg, iv by LC-MS/MS analysis; format: ADME, organism-based
[6] = Ratio of drug level in Sprague-Dawley rat blood to plasma at 1 mg/kg, iv measured for 24 hrs by LC-MS/MS analysis; format: ADME, organism-based; conditions: blood and plasma
[7] = molecular target: T1, Sphingosine 1-phosphate receptor 2; experiment: Binding affinity to S1PR2 (unknown origin) measured by surface plasmon resonance assay; conditions: filed as antagonist
[8] = Clearance in Sprague-Dawley rat plasma at 1 mg/kg, iv measured for 24 hrs by LC-MS/MS analysis; format: ADME, organism-based
[9] = AUC (0 to infinity) in Sprague-Dawley rat plasma at 1 mg/kg, iv by LC-MS/MS analysis; format: ADME, organism-based; set-up: time infinity, route intravenous, dose 1 mg/kg
[10] = AUC (0 to t) in Sprague-Dawley rat plasma at 1 mg/kg, iv measured for 24 hrs by LC-MS/MS analysis; format: ADME, organism-based; set-up: dose 1 mg/kg, time 24 hrs
HCT-116 = experiment: Reversal of 5-FU resistance against human HCT-116 cells overexpressing DPD assessed as inhibition of cell proliferation measured after 72 hrs in presence of 5-FU by MTT assay; format: functional, cell-based; conditions: HCT-116, 72 h
[11] = Half life in Sprague-Dawley rat blood at 1 mg/kg, iv measured for 24 hrs by LC-MS/MS analysis; format: ADME, organism-based
[12] = Reversal of 5-FU resistance against human SW620/5-FU cells xenografted in athymic nude mouse assessed as potentiation of 5-FU induced antitumor activity by measuring inhibition of tumor growth at 12.5 mg/kg/day, iv administered for 24 days in presence of 5-FU (reference value: 18.54%); format: functional; conditions: 576 h, time 24 day, read-out: TGI
[13] = molecular target: T1, Sphingosine 1-phosphate receptor 2; experiment: Antagonist activity at S1PR2 in human SW620/5-FU cells assessed as reduction of DPD-catalyzed 5-FU degradation by measuring intracellular 5-FU level at 2 uM measured after 6 hrs by HPLC-UV analysis; format: functional, cell-based; conditions: filed as antagonist
[14] = molecular target: T1, Sphingosine 1-phosphate receptor 2; experiment: Antagonist activity at S1PR2 in human SW620/5-FU cells assessed as reduction of DPD-catalyzed 5-FU degradation by measuring intracellular FBAL level at 2 uM measured after 6 hrs by HPLC-UV analysis; format: functional, cell-based; conditions: filed as antagonist
[15] = Mean residence time (0 to infinity) in Sprague-Dawley rat blood at 1 mg/kg, iv by LC-MS/MS analysis; format: ADME, organism-based
[16] = Mean residence time (0 to t) in Sprague-Dawley rat blood at 1 mg/kg, iv measured for 24 hrs by LC-MS/MS analysis; format: ADME, organism-based
[17] = Plasma concentration in Sprague-Dawley rat at 1 mg/kg, iv measured after 8 hrs by LC-MS/MS analysis; format: ADME, organism-based
[18] = Mean residence time (0 to t) in Sprague-Dawley rat plasma at 1 mg/kg, iv measured for 24 hrs by LC-MS/MS analysis; format: ADME, organism-based
Mus musculus [19] = experiment: Downregulation of DPD expression in tumour of athymic nude mouse xenografted with human SW620/5-FU at 12.5 mg/kg/day, iv administered for 24 days in presence of 5-FU and measured on day 24 by immunohistochemistry; format: functional, organism-based; conditions: time 24.0 day
Mus musculus [20] = experiment: Downregulation of DPD expression in colon of athymic nude mouse xenografted with human SW620/5-FU cells at 12.5 mg/kg/day, iv administered for 24 days in presence of 5-FU and measured on day 24 by immunohistochemistry; format: functional, organism-based; conditions: time 24.0 day
Mus musculus [21] = experiment: Downregulation of DPD expression in liver of athymic nude mouse xenografted with human SW620/5-FU at 12.5 mg/kg/day, iv administered for 24 days in presence of 5-FU and measured on day 24 by immunohistochemistry; format: functional, organism-based; conditions: time 24.0 day
[22] = Reversal of 5-FU resistance against human SW620/5-FU cells assessed as inhibition of cell proliferation measured after 72 hrs in presence of 5-FU by MTT assay; format: functional, cell-based
NCM460 = experiment: Cytotoxicity against human NCM460 cells assessed as cell viability measured after 72 hrs in presence of 5-FU by MTT assay; format: cell-based; conditions: NCM460, 72 h
[23] = Initial plasma concentration in Sprague-Dawley rat at 1 mg/kg, iv by LC-MS/MS analysis; format: ADME, organism-based
[24] = Volume of distribution in Sprague-Dawley rat blood at 1 mg/kg, iv measured for 24 hrs by LC-MS/MS analysis; format: ADME, organism-based
[25] = Initial drug concentration in Sprague-Dawley rat blood at 1 mg/kg, iv by LC-MS/MS analysis; format: ADME, organism-based
[26] = Toxicity in athymic nude mouse xenografted with human SW620/5-FU cells assessed as body weight loss at 12.5 mg/kg/day, iv administered for 24 days in presence of 5-FU and measured after 12 days; format: organism-based; conditions: in vivo, 288 h, time 12 day
[27] = AUC (0 to infinity) in Sprague-Dawley rat blood at 1 mg/kg, iv by LC-MS/MS analysis; format: ADME, organism-based; set-up: route intravenous, time infinity, dose 1 mg/kg
[28] = Clearance in Sprague-Dawley rat blood at 1 mg/kg, iv measured for 24 hrs by LC-MS/MS analysis; format: ADME, organism-based
[29] = Half life in Sprague-Dawley rat plasma at 1 mg/kg, iv measured for 24 hrs by LC-MS/MS analysis; format: ADME, organism-based
[30] = AUC (0 to t) in Sprague-Dawley rat blood at 1 mg/kg, iv measured for 24 hrs by LC-MS/MS analysis; format: ADME, organism-based; set-up: time 24 hrs, dose 1 mg/kg
[31] = Toxicity in athymic nude mouse xenografted with human SW620/5-FU cells assessed as histopathological changes in liver at 12.5 mg/kg/day, iv administered for 24 days in presence of 5-FU and measured on day 24 by immunohistochemistry; format: organism-based; conditions: in vivo, 576 h, time 24 day
[32] = molecular target: T1, Sphingosine 1-phosphate receptor 2; experiment: Antagonist activity at S1PR2 in human SW620/5-FU cells assessed as downregulation of DPD expression by western blot analysis; format: functional, cell-based; conditions: filed as antagonist

With `Cc1nn(C)c2nc(NNC(=O)Nc3cc(Cl)nc(Cl)c3)cc(C(C)C)c12` the concentration at 8 h [1] was less than 1 ng/mL, the Vd [2] was 3.1 L/kg and the “Dissociation rate constant (koff)” value [3] was 1.61 10^-1/s. For the same compound, the Ka [4] was 8.21 10^4/M/s, the MRT inf [5] was 54 min and the blood plasma ratio at 24 h [6] was 1.62. For the same compound, the K [7] was 1.96 10^-6M, the clearance [8] was 35 mL/min/kg and the AUC(0-inf) [9] was 484 ng·h/mL. It also gave an AUC(0-t) at 24 h [10] of 482 ng·h/mL, an EC50 (HCT-116) of 17.1 µM and a half-life [11] of 60 min. The inhibition in vivo at 12.5 mg/kg/day [12] was 29.9%, the Activity [13] was 4.87 mg/L and the Activity [14] was 1.37 mg/L. The MRT inf [15] was 1 h, the MRT last at 24 h [16] was 54 min and the concentration at 8 h [17] was less than 1 ng/mL. For the same compound, the MRT last at 24 h [18] was 54 min, the inhibition (Mus musculus [19]) was “Active” and the inhibition (Mus musculus [20]) was “inactive”. The inhibition (Mus musculus [21]) was “Active”, the EC50 [22] was 58.6 µM and the EC50 (NCM460) was 61.3 µM. It also gave a C0 [23] of 2020 ng/mL, a Vd [24] of 2.1 L/kg and a C0 [25] of 1840 ng/mL. For the same compound, the Activity [26] was “Toxic”, the AUC(0-inf) [27] was 738 ng·h/mL and the clearance [28] was 23.3 mL/min/kg. The half-life [29] was 66 min, the AUC(0-t) at 24 h [30] was 726 ng·h/mL and the Activity [31] was “Non-Toxic”.
For `COc1cc(NC(=O)Nc2cc(Cl)nc(Cl)c2)cc(Cl)n1`, the “Dissociation rate constant (koff)” value [3] was 2.19 10^-1/s, the Ka [4] was 3.21 10^5/M/s and the K [7] was 6.82 10^-7M. The EC50 (HCT-116) was 11.2 µM, the EC50 [22] was 14.2 µM and the EC50 (NCM460) was 33.2 µM. The inhibition [32] was “Active”.
